Legend:
[1] = Stability of Yb complexes in 1N DCl by 1H NMR; type: physicochemical
Experimental: (§4) The stability of CuDOTA and CuL2 was compared by UV-Visible spectra. […] Because the ionic radii of Lu(III) is very close to Yb(III), so we used the Yb(III) as a surrogate to study the stability. […] Additionally, we examined in vitro serum stability of ^64CuL2 at 37 °C.

[2] = 17O NMR water exchange (residence time of water co-ligand); type: physicochemical; conditions: 17O NMR at 11.7T
Experimental: (§1) Relaxivity measurements were performed on a Bruker mq60 Minispec at 1.41T and 37 °C. Longitudinal (T1) relaxation times were measured using an inversion recovery experiment with 10 inversion times of duration ranging between 0.05 × T1 and 5 × T1. Transverse (T2) relaxation times were measured using a CPMG pulse sequence. Relaxivity (r1, r2) was determined from the slope of a plot of 1/T1,2 vs [Gd] for at least 4 concentrations of Gd(III) (data shown in Supplementary Figs. 93–110). The T2 relaxation times of ^17O at 11.7T were estimated from the full-width at half-height of the H2^17O resonance at temperatures ranging from 278 to 368K. Reduced relaxation rates (1/T2r) were calculated by taking the difference of 1/T2 measured in the presence and absence of Gd(III) and dividing by the mole fraction of coordinated water molecules, assuming q = 1. […] However, at the high magnetic field used, and because of the very-fast water exchange rates observed, there was negligible contribution of T1e, and the data were refit to a two-parameter model using the water exchange rate at 310K (τM) and enthalpy of activation for water exchange (ΔH^‡) as adjustable parameters. The Gd-O hyperfine coupling constant, A/ħ, was assumed to be -3.8 × 10^6 rad s^−1 [57], [58]. Samples were prepared in neat H2O adjusted and enriched with a small amount of H2^17O.

[3] = Relaxivity measurements at 1.41T and 37 °C; type: physicochemical
Experimental: as §1

[4] = Gd complexes biodistribution studies (ICP-MS); type: in vivo, BALB/c mice; conditions: 0.025 mmol/kg i.v., 5-360 min post injection
From the text: Most commercially available Gd(III)-based MRI contrast agents are excreted rapidly and exclusively through the renal pathway. One of the few exceptions is an acyclic compound, Gd-EOB-DTPA, which has a mixed clearance (50% renal, 50% biliary) and is used for imaging of the liver and biliary system. Gd-BOPTA and MS-325 have predominantly renal elimination with <10% elimination through the biliary system. […] We illustrated with our studies that there is a significant variation in the biodistribution profiles despite the small structural differences of the chiral substituents (Supplementary Fig. 20). Gd biodistribution in BALB/c mice was measured by ICP-MS at 5, 15, 30, 60, 180 and 360 min following injection. […] Low levels of Gd(III) are present at 6 h post injection. […] The specific and unusual localisation of [GdL2]^− in the liver makes it a potential hepatobiliary-specific MRI contrast agent.
(§2) Gd concentrations were determined using an Agilent 8800-QQQ ICP-MS system. All samples were diluted with 0.1% Triton X-100 in 5% nitric acid. Lutetium internal standard was steadily introduced to the ICP-MS from an external source during the analysis. A linear calibration curve for each metal ranging from 0.1 ppb to 200 ppb was generated daily for the quantification.
Complexes [GdL1]^−, [GdL2]^− and [GdL5]^− were prepared by dissolving in saline solution, while [GdDOTA]^− (Dotarem) was diluted in saline solution. Eight-week-old male BALB/c mice (purchased from BioLASCO, Taiwan) each weighing approximately 25 g were administered with a single dose of 0.025 mmol/kg compound ([GdL1]^−, [GdL2]^−, [GdDOTA]^− and [GdL5]^−; 3 mice per compound per time point) in a 100 μl volume via lateral tail vein injection. The mice were then euthanized, and their blood collected by cardiac puncture at each time point (5, 15, 30, 60, 180 or 360 min post injection). A control group of 4 mice was treated with saline and killed at time point 0. The liver, lung, heart, kidneys, spleen and brain were removed from the animals and weighed. Gd content in tissue and blood samples was quantified via ICP-MS analysis. All experiments were performed in accordance with the NIH Guide for the Care and Use of Laboratory Animals and approved by the Institutional Animal Care and Use Committee of Massachusetts General Hospital or by the Department of Health of the Hong Kong Government and the Animal Subjects Ethics Sub-Committee of Hong Kong Polytechnic University.

[5] = In vivo dynamic T1-weighted MR imaging at 4.7T; set-up: species or system C57/Bl6 mice; conditions: 0.1 mmol per kg i.v., 4.7 tesla, n = 1
Experimental: Dynamic T1-weighted MR imaging at 4.7 tesla was performed with C57/Bl6 mice before, during, and after 0.1 mmol per kg injection of each compound (Fig. 7).
(§3) Imaging was performed at 4.7T using a small-bore animal scanner (Bruker Biospec). Pilot dynamic MRI studies were performed with [GdL1]^−, [GdL2A]^−, [GdL2B]^− and [GdL5]^−; n = 1 per compound. Six to eight weeks male C57/Bl6 mice were anaesthetised with isoflurane (1%–2%) and placed in a specially designed cradle with body temperature maintained at 37 °C. The tail vein was catherised for intravenous delivery of the contrast agent while the animal was positioned in the scanner. A pneumatic pillow was placed on the mouse to enable respiratory monitoring (SA Instruments), and the animal’s body temperature was maintained with warm air. The imaging protocol utilised a three-dimensional fast low angle shot (3D FLASH) with a […] flip angle, 9.00 ms repetition rate, 2.39 ms echo time, 4.8 cm × 2.4 cm × 2.4 cm field of view with a 0.3 mm isotropic resolution. Images were acquired with either 2 or 8 averages giving an acquisition time of 2 min or 8 min, respectively. Baseline images were acquired with both 2 and 8 averages, then the Gd complex (0.1 mmol per kg) was injected intravenously and the sequence with 2 averages was repeated for a period of 10 min to monitor blood clearance. At 10, 30, 45, 60, 75 and 90 min after probe injection, the sequence with 8 averages was repeated to monitor the clearance of contrast from the liver and kidneys. After imaging was performed, the mouse was removed from the scanner and euthanized at 2 h post injection and the tissues were harvested for Gd quantification by ICP-MS.

[6] = Ex vivo biodistribution 2 h post injection after MRI study (ICP-MS); type: in vivo, C57/Bl6 mice; conditions: 0.1 mmol per kg i.v.
Experimental: as §2, §3

[7] = Stability of Eu complexes on heating, at low pD and with Zn2+ (1H NMR); type: physicochemical
[8] = In vitro serum stability of 64CuL2; type: in vitro ADME; conditions: 37 °C
Experimental: as §4

O=C([O-])CN1CCN(CC(=O)[O-])CCN(CC(=O)[O-])CCN(CC(=O)[O-])CC1.[Yb+3] [[YbDOTA]^−, reference compound]
decomplexation [1]: decomplexed very fast

CC[C@H]1CN(CC(=O)[O-])[C@@H](CC)CN(CC(=O)[O-])[C@@H](CC)CN(CC(=O)[O-])[C@@H](CC)CN1CC(=O)[O-].[Yb+3] [[YbL2]^−]
decomplexation [1]: no obvious decomplexation

NCCCC[C@H]1CN(CC(=O)[O-])[C@@H](CCCCN)CN(CC(=O)[O-])[C@@H](CCCCN)CN(CC(=O)[O-])[C@@H](CCCCN)CN1CC(=O)[O-].[Gd+3] [[GdL5]^−]
ΔH^‡, enthalpy change of activation of water exchange [2]: 4.3 ± 0.598 kcal/mol
τM^310K, mean residence time of the water co-ligand at 310 K ([2]; 310 K, q = 1 assumed): 16 ± 0.8 ns
r1 relaxivity ([3]; 4.5% w/v HSA (1.4T)): 5.1 mM⁻¹ s⁻¹
r1 relaxivity ([3]; Human Plasma (1.4T)): 5.1 mM⁻¹ s⁻¹
r1 relaxivity ([3]; Water (1.4T)): 4.1 mM⁻¹ s⁻¹
Gd biodistribution / elimination profile [4]: mainly in the kidney and showed no tendency of clearance after 6 h
MR enhancement of liver and gall bladder [5]: very little enhancement in the liver
MR signal in the kidneys over time / at 60 min post injection [5]: renal cortex remained strongly enhanced
Gd concentration in blood [6]: 0.80 nmol Gd per gram tissue
Gd concentration in gall bladder [6]: 60.17 nmol Gd per gram tissue
Gd concentration in heart [6]: 2.18 nmol Gd per gram tissue
Gd concentration in intestines [6]: 2.68 nmol Gd per gram tissue
Gd concentration in kidney [6]: over 90 nmol Gd per gram tissue
Gd concentration in liver [6]: 2.01 nmol Gd per gram tissue
Gd concentration in lung [6]: 1.49 nmol Gd per gram tissue
Gd concentration in muscle [6]: 2.97 nmol Gd per gram tissue
Gd concentration in spleen [6]: 4.43 nmol Gd per gram tissue
Gd concentration in stomach [6]: 1.11 nmol Gd per gram tissue
Gd concentration in tail [6]: 2.28 nmol Gd per gram tissue
Gd concentration in kidney ([6]; listed as GdL5): 93.23 nmol Gd per gram tissue

CC[C@H]1CN(CC(=O)[O-])[C@@H](CC)CN(CC(=O)[O-])[C@@H](CC)CN(CC(=O)[O-])[C@@H](CC)CN1CC(=O)[O-].[Eu+3] [[EuL2A]^−]
stability with Zn2+ ([7]; 1 equivalent of Zn^2+): nor did the presence of 1 equivalent of Zn^2+ caused any instability
inertness upon heating ([7]; 90 °C for 3 days, pD 7.0 ([EuL2A]) and 6.0 ([EuL2B])): extreme inertness
racemization upon heating ([7]; heating for 3 days at pD 1.0): no signs of racemization

CC[C@H]1CN(CC(=O)O)[C@@H](CC)CN(CC(=O)[O-])[C@@H](CC)CN(CC(=O)O)[C@@H](CC)CN1CC(=O)[O-].[64Cu+2] [^64CuL2]
decrease of radiochemical purity ([8]; 1 h of incubation): less than 0.3%
decrease of radiochemical purity ([8]; 24 h of incubation): < 6.3%

From publication PMC5829242, “Chiral DOTA chelators as an improved platform for biomedical imaging and therapy applications” (Nature Communications, 2018)
